As usually defined, the IC50 is the point on the concentration scale where inhibition reaches its midpoint. A higher IC50 goes with weaker potency in that assay.

In the assay the target is T1, RORc ligand binding domain (Homo sapiens, UniProt P51449).
T1 construct: host or cells: E. coli
T1 sequence (P51449 269-508 limits assumed): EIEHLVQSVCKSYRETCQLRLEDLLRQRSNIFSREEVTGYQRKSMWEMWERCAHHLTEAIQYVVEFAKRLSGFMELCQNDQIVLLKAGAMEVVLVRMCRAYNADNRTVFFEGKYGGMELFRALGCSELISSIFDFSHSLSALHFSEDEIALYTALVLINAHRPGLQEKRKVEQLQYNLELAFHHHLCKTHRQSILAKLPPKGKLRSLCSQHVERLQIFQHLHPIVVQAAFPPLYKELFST
As to the kind of experiment: In Vitro RORc Ligand Binding Assay. The settings on record: displacement of 25-[3H]hydroxycholesterol (6 nM), 0.6 ug/mL RORc receptor, 3 h at 25° C. The procedure: In Vitro RORc Ligand Binding Assay This assay was used to determine a compound's potency in inhibiting activity of RORc by determining, Kiapp, IC50, or percent inhibition values. […] On day of the assay, 100 uL of 0.05% CHAPS (in deionized H2O) was added to all wells of the GFB Unifilter plate and allowed soak for 1 h. A wash buffer of 50 mM HEPES (pH 7.4), 150 mM NaCl, and 5 mM MgCl2 was prepared to wash the filter plate. To prepare an assay buffer, BSA was added to the wash buffer to reach 0.01% and DTT was added to reach 1 mM. […] The 20× compound stocks were diluted in DMSO with Assay Buffer 4-fold to reach 5× the final test concentration in 25% DMSO (10 uL compound+30 uL Assay Buffer). Solutions were mixed by aspiration several times with a pipette set on 50 uL volume. For the assay, 10 uL of 5× compound stock solutions in 25% DMSO were added to the assay plate in duplicate. For two point screening, 10 mM stock compound solutions were diluted in DMSO to obtain 200 uM (20× the high test concentration) and then diluted 10-fold further to reach 20 uM (20× the low test concentration). The 20× stocks were diluted 4-fold with Assay Buffer (10 uL compound+30 uL Assay Buffer) to reach 5× the test concentrations (50 uM and 5 uM) and 10 uL were added to two assay plates for the duplicate wells. […] Add 20 uL to all wells to reach 6 nM final concentration in the assay. […] Stock receptor solution was diluted in assay buffer to obtain 1.5 ug/mL in Assay Buffer. 20 uL was added to all wells. For No Receptor samples, 20 uL Assay Buffer was substituted for receptor solution. […] Following addition to the wells, the plates were incubated 3 h at 25° C. Using a Packard Filtermate Harvester, the filter plate were washed 4 times following transfer of the incubated samples. Plates were dry-filtered completely (2 h at 50° C. or overnight at room temperature). 50 uL Microscint 0 was added to all wells and read on Topcount protocol Inverted. […] For NSB wells, 1 uM 25-hydroxycholesterol was also present.
`CC(C)CN(c1cccc(Cl)c1)S(=O)(=O)c1ccc(OC2CCN(S(C)(=O)=O)CC2)cc1` [Compound 34, N-(3-Chloro-phenyl)-N-isobutyl-4-(1-methanesulfonyl-piperidin-4-yloxy)-benzenesulfonamide]: the IC50 came to 8 nM.

`CC(=O)N1CCN(c2ccc(S(=O)(=O)N(CC(C)C)c3ccccc3C(F)(F)F)cc2)CC1` [Compound 41, 4-(4-Acetyl-piperazin-1-yl)-N-isobutyl-N-(2-trifluoromethyl-phenyl)-benzenesulfonamide] registered a half-maximal inhibitory concentration (IC50) of 28 nM.

`CC(C)CN(c1ccccc1Cl)S(=O)(=O)c1ccc(N2CCN(S(C)(=O)=O)CC2)cc1` [Compound 22, N-(2-Chloro-phenyl)-N-isobutyl-4-(4-methanesulfonyl-piperazin-1-yl)-benzenesulfonamide] displayed an IC50 of 87 nM.

`CC(C)CN(c1cccc(Cl)c1)S(=O)(=O)c1ccc(N2CCN(S(C)(=O)=O)CC2)cc1F` [Compound 27, N-(3-Chloro-phenyl)-2-fluoro-N-isobutyl-4-(4-methanesulfonyl-piperazin-1-yl)-benzenesulfonamide] showed a half-maximal inhibitory concentration (IC50) of 33 nM.

`CC(C)CN(Cc1ccccc1C(F)(F)F)S(=O)(=O)c1ccc(N2CCN(S(C)(=O)=O)CC2)cc1F` [Compound 69, 2-Fluoro-N-isobutyl-4-(4-methanesulfonyl-piperazin-1-yl)-N-(2-trifluoromethyl-benzyl)-benzenesulfonamide]: the half-inhibitory concentration (IC50) worked out at 20 nM.

In turn, `CC(C)CN(c1cccc(Cl)c1)S(=O)(=O)c1ccc(OC2CCN(S(=O)(=O)N(C)C)CC2)cc1` [Compound 39, 4-{4-[(3-Chloro-phenyl)-isobutyl-sulfamoyl]-phenoxy}-piperidine-1-sulfonic acid dimethylamide] registered an IC50 of 191 nM.

The compound `CC(C)CN(c1ccccc1Cl)S(=O)(=O)c1ccc(N2CCC(O)CC2)cc1` [Compound 16, N-(2-Chloro-phenyl)-4-(4-hydroxy-piperidin-1-yl)-N-isobutyl-benzenesulfonamide] displayed a half-maximal inhibitory concentration (IC50) of 1300 nM.

Compound `CC(C)CN(Cc1ccc(OC(F)(F)F)cc1)S(=O)(=O)c1ccc(N2CCN(S(C)(=O)=O)CC2)cc1` [Compound 64, N-Isobutyl-4-(4-methanesulfonyl-piperazin-1-yl)-N-(4-trifluoromethoxy-benzyl)-benzenesulfonamide] registered a half-maximal inhibitory concentration (IC50) of 102 nM.

In turn, `CC(=O)N1CCN(c2ccc(S(=O)(=O)N(CC(C)C)c3ccccc3Cl)cc2)CC1` [Compound 21, 4-(4-Acetyl-piperazin-1-yl)-N-(2-chloro-phenyl)-N-isobutyl-benzenesulfonamide] showed an IC50 of 99 nM.

On to `CC(C)CN(c1cccc(Cl)c1)S(=O)(=O)c1ccc(N2CCC(O)CC2)cc1` [Compound 15, N-(3-Chloro-phenyl)-4-(4-hydroxy-piperidin-1-yl)-N-isobutyl-benzenesulfonamide], for which the IC50 was 771 nM.

Compound `CS(=O)(=O)N1CCC(Oc2ccc(S(=O)(=O)N(Cc3ccccc3C(F)(F)F)C3CCC3)cc2)CC1` [Compound 89, N-Cyclobutyl-4-(1-methanesulfonyl-piperidin-4-yloxy)-N-(2-trifluoromethyl-benzyl)-benzenesulfonamide] registered an IC50 of 9 nM.

The compound `CC(C)CN(c1cccc(F)c1F)S(=O)(=O)c1ccc(OC2CCN(S(C)(=O)=O)CC2)cc1` [Compound 49, N-(2,3-Difluoro-phenyl)-N-isobutyl-4-(1-methanesulfonyl-piperidin-4-yloxy)-benzenesulfonamide] had an IC50 of 8 nM.

`CC(C)CN(Cc1ccccc1C(F)(F)F)S(=O)(=O)c1ccc(N2CCN(S(C)(=O)=O)CC2)c(F)c1` [Compound 75, 3-Fluoro-N-isobutyl-4-(4-methanesulfonyl-piperazin-1-yl)-N-(2-trifluoromethyl-benzyl)-benzenesulfonamide] had an IC50 of 8 nM.

In the case of `CC(C)CN(c1cccc(Cl)c1)S(=O)(=O)c1ccc(N2CCN(S(C)(=O)=O)CC2)cc1` [Compound 18, N-(3-Chloro-phenyl)-N-isobutyl-4-(4-methanesulfonyl-piperazin-1-yl)-benzenesulfonamide], the IC50 turned out to be 126 nM.

For the compound `CC(C)CN(c1c(F)cccc1F)S(=O)(=O)c1ccc(OC2CCN(S(C)(=O)=O)CC2)cc1` [Compound 52, N-(2,6-Difluoro-phenyl)-N-isobutyl-4-(1-methanesulfonyl-piperidin-4-yloxy)-benzenesulfonamide], the IC50 amounted to 11 nM.

Turning to `CC(C)CN(c1cccc(Cl)c1)S(=O)(=O)c1ccc(OC2CCN(C(N)=O)CC2)cc1` [Compound 35, 4-{4-[(3-Chloro-phenyl)-isobutyl-sulfamoyl]-phenoxy}-piperidine-1-carboxylic acid amide], the IC50 worked out at 108 nM.

`CC(C)CN(c1cccc(Cl)c1)S(=O)(=O)c1ccc(NC2CCN(C(N)=O)CC2)cc1` [Compound 36, 4-{4-[(3-Chloro-phenyl)-isobutyl-sulfamoyl]-phenylamino}-piperidine-1-carboxylic acid amide] showed a concentration for half-maximal inhibition (IC50) of 66 nM.

`CC(C)CN(Cc1ccc(OC(F)F)cc1)S(=O)(=O)c1ccc(N2CCN(S(C)(=O)=O)CC2)cc1` [Compound 72, N-(4-Difluoromethoxy-benzyl)-N-isobutyl-4-(4-methanesulfonyl-piperazin-1-yl)-benzenesulfonamide] gave a half-maximal inhibitory concentration (IC50) of 83 nM.

The compound `CC(C)CN(c1cc(F)ccc1F)S(=O)(=O)c1ccc(OC2CCN(S(C)(=O)=O)CC2)cc1` [Compound 51, N-(2,5-Difluoro-phenyl)-N-isobutyl-4-(1-methanesulfonyl-piperidin-4-yloxy)-benzenesulfonamide] returned a 50% inhibitory concentration (IC50) of 8 nM.

Turning to `CC(C)CN(Cc1ccc(F)cc1)S(=O)(=O)c1ccc(NC2CCN(S(C)(=O)=O)CC2)cc1` [Compound 2, N-(4-Fluoro-benzyl)-N-isobutyl-4-(1-methanesulfonyl-piperidin-4-ylamino)-benzenesulfonamide], the half-inhibitory concentration (IC50) was 8 nM. That is a single-digit nanomolar value.

The compound `CC(=O)N1CCN(c2ccc(S(=O)(=O)N(Cc3cccc(C(F)(F)F)c3)CC(C)C)cc2)CC1` [Compound 58, 4-(4-Acetyl-piperazin-1-yl)-N-isobutyl-N-(3-trifluoromethyl-benzyl)-benzenesulfonamide] showed an IC50 of 244 nM.

For the compound `CC(C)CN(c1ccc(F)cc1)S(=O)(=O)c1ccc(OC2CCN(S(C)(=O)=O)CC2)cc1` [Compound 3, N-(4-Fluoro-phenyl)-N-isobutyl-4-(1-methanesulfonyl-piperidin-4-yloxy)-benzenesulfonamide], the 50% inhibitory concentration (IC50) was determined as 16 nM.

With `CC(C)CN(c1cccc(Cl)c1)S(=O)(=O)c1ccc(N2CCN(S(C)(=O)=O)CC2)c(F)c1` [Compound 29, N-(3-Chloro-phenyl)-3-fluoro-N-isobutyl-4-(4-methanesulfonyl-piperazin-1-yl)-benzenesulfonamide], the half-maximal inhibitory concentration (IC50) is 36 nM.

`CC(=O)N1CCN(c2ccc(S(=O)(=O)N(CC(F)(F)F)c3cccc(Cl)c3)cc2)CC1` [Compound 37, 4-(4-Acetyl-piperazin-1-yl)-N-(3-chloro-phenyl)-N-(2,2,2-trifluoro-ethyl)-benzenesulfonamide] gave an IC50 of 305 nM.

On to `CC(=O)N1CCC(Oc2ccc(S(=O)(=O)N(CC(C)C)c3cccc(Cl)c3)cc2)CC1` [Compound 33, 4-(1-Acetyl-piperidin-4-yloxy)-N-(3-chloro-phenyl)-N-isobutyl-benzenesulfonamide], for which the IC50 was found to be 198 nM. This IC50 is about 1.5-fold lower than that of the compound before.

In turn, `CC(=O)N1CCN(c2ccc(S(=O)(=O)N(CC(C)C)c3cccc(Cl)c3)cc2)CC1` [Compound 17, 4-(4-Acetyl-piperazin-1-yl)-N-(3-chloro-phenyl)-N-isobutyl-benzenesulfonamide] came in with an IC50 of 138 nM.

`CC(=O)N1CCN(c2ccc(S(=O)(=O)N(Cc3ccccc3C(F)(F)F)C3(C)CCC3)cc2)CC1` [Compound 86, 4-(4-Acetyl-piperazin-1-yl)-N-(1-methyl-cyclobutyl)-N-(2-trifluoromethyl-benzyl)-benzenesulfonamide] gave an IC50 of 70 nM.

On to `CC(C)CN(c1ccccc1C(F)(F)F)S(=O)(=O)c1ccc(NC2CCN(S(C)(=O)=O)CC2)cc1` [Compound 46, N-Isobutyl-4-(1-methanesulfonyl-piperidin-4-ylamino)-N-(2-trifluoromethyl-phenyl)-benzenesulfonamide], for which the half-maximal inhibitory concentration (IC50) came out at 33 nM.

For the compound `CC(C)CN(c1ccccc1Cl)S(=O)(=O)c1cccc(N2CCN(S(C)(=O)=O)CC2)c1` [Compound 25, N-(2-Chloro-phenyl)-N-isobutyl-3-(4-methanesulfonyl-piperazin-1-yl)-benzenesulfonamide], the IC50 came to 528 nM.

The values above are taken from patent publication US9382222B2, “Benzyl sulfonamide derivatives as RORc modulators” (Genentech, Inc., priority 2012, dated 2016).
